In patent US20070048738A1, “Methods and compositions for diagnosis, staging and prognosis of prostate cancer” (Mayo Foundation for Medical Education and Research, priority 2003, published 2007):

Tests used:
KIAA1210 = KIAA1210 mRNA expression in prostate cancer cell lines after 5-Aza-CdR treatment (TaqMan real-time PCR); details: LAPC4 and LNCaP cells; 6 μM 5-Aza-CdR for 6 days
PRIMA1 = PRIMA1 mRNA expression in prostate cancer cell lines after 5-Aza-CdR treatment (TaqMan real-time PCR); details: 6 μM 5-Aza-CdR for 6 days
FLJ14084 = FLJ14084 mRNA expression in prostate cancer cell lines after 5-Aza-CdR treatment (TaqMan real-time PCR); details: all three prostate cancer cells (LAPC4, LNCaP, PC3); 6 μM 5-Aza-CdR for 6 days
ZNF185 = ZNF185 mRNA expression in prostate cancer cell lines after 5-Aza-CdR treatment (Taqman real-time PCR); type: cell-based, human; details: LAPC4, LNCaP and PC3 prostate cancer cell lines; 6 μM 5-Aza-CdR for 6 days; versus untreated cells
[1] = system: ZNF185 5′ CpG dinucleotides of genomic DNA; assay: Methylation specific PCR (MSP) of ZNF185 DNA in prostate cell lines with or without 5-Aza-CdR; type: cell-based, human; details: prostate cancer cell lines with 5-Aza-CdR treatment versus without
Description: DNA isolation and Bisulfite modification. Genomic DNA was obtained from metastatic, primary, matched benign prostatic tissues and the above mentioned prostate cancer cell lines treated with 5-Aza-CdR, using Wizard® genomic DNA purification kit according to the manufacturer's protocol (Promega, Madison, Wis.). Genomic DNA (100 ng) was modified by sodium bisulfite treatment by converting unmethylated, but not methylated, cytosines to uracil as described previously (Herman et al., Proc. Natl. Acad. Sci. USA 93:9821-9826, 1996). DNA samples were then purified using the spin columns (Qiagen), and eluted in 50 μl of distilled water. Modification was completed by treatment with NaOH (0.3 M final concentration) for 5 min at room temperature, followed by ethanol precipitation. […]
Methylation Specific PCR (MSP). DNA methylation patterns within the gene were determined by chemical modification of unmethylated cytosine to uracil and subsequent PCR as described previously (Esteller et al., Cancer Res. 61:3225-3229, 2001), using primers specific for either methylated or the modified unmethylated sequences.
Two sets of primers were designed corresponding to the genomic positions around 210 and 335. […] One (1) μl of the PCR product was directly loaded onto DNA 500 lab chip and analyzed on Agilent 2100 Bioanalyzer (Agilent Technologies, Palo Alto, Calif.).

TU3A = TU3A mRNA expression in prostate cancer cell lines after 5-Aza-CdR treatment (TaqMan real-time PCR); details: 6 μM 5-Aza-CdR for 6 days
SVIL = SVIL mRNA expression in prostate cancer cell lines after 5-Aza-CdR treatment (TaqMan real-time PCR); details: 6 μM 5-Aza-CdR for 6 days

## Nc1ncn([C@H]2C[C@H](O)[C@@H](CO)O2)c(=O)n1 [5-Aza-CdR, 5-aza-2′-deoxycytidine]
KIAA1210
  KIAA1210 mRNA levels: increased
PRIMA1; LACaP cells (so in the source)
  expression of PRIMA1 mRNA levels: not in LACaP
PRIMA1; LAPC4 and PC3 cells
  expression of PRIMA1 mRNA levels: significant increase
FLJ14084
  expression of FLJ14084 mRNA levels: significant increase
ZNF185
  increase in mRNA levels of ZNF185: ~2.0 fold
[1]
  methylated and unmethylated ZNF185 bands by MSP: reduction of the methylated band and increase of the unmethylated band
TU3A; LAPC4 and PC3 cells
  TU3A expression levels: not in LAPC4 and PC3 cells
TU3A; LNCaP cells
  TU3A expression levels: significantly increased
SVIL; LACaP cells (so in the source)
  expression of SVIL mRNA levels: not in LACaP
SVIL; LAPC4 and PC3 cells
  expression of SVIL mRNA levels: significant increase
